Measured values: patent US9289505B2, “Compositions and methods for delivering nucleic acid molecules and treating cancer” (Rutgers, The State University of New Jersey, priority 2010, dated 2016)
d = 2'-deoxy (DNA); r = 2'-OH (RNA)

What was measured:
[1] = test system: A549 human lung cancer cells; assay: Cellular internalization of FAM-labelled siRNA; assay type: cell-based; conditions: 24 hours, siRNA 0.25 μM, fluorescence microscopy
Procedure: Prior to the visualization, A549 cells were plated (20,000 cells per well) in a 6-well tissue culture plate. The cells were treated within 24 hours with the siRNA complex prepared with different generations of PPI dendrimer. The treatment of the A549 cells was performed in such a manner that the final concentration of siRNA was 0.25 μM and the concentrations of PPI G2, G3, G4, and G5 dendrimers were 3.15 μM, 1.58 μM, 0.79 μM, and 0.39 μM, respectively. After 24 hours of treatment, the cells were washed three times with Phosphate Buffered Saline (PBS) and 1 mL of media was added to each well. Cellular internalization of siRNA-dendrimer complexes were analyzed by fluorescent (Olympus America Inc., Melville, N.Y.) and confocal (Leica Microsystems Inc., Bannockburn, Ill.) microscopes. To obtain intracellular distribution of siRNA, ten optical sections, known as a z-series, were photographed sequentially, by confocal microscope, along the vertical (z) axis from the top to the bottom of the cell. The obtained fluorescent images were digitally scanned and fluorescence inside cells (reflecting intracellular accumulation of labelled siRNA) was expressed in arbitrary units.

BCL2 mRNA = assay: BCL2 gene silencing by siRNA-dendrimer complexes, RT-PCR; assay type: cell-based, human; conditions: A549 cells, 24 hours incubation
Procedure: Quantitative reverse transcription-polymerase chain reaction (RT-PCR) was used for the analysis of expression of genes encoding BCL2 protein and β2-microglobulin (internal standard) as previously described (Pakunlu et al. (2003) Pharm. Res., 20:351-359). RNA was isolated after 24 hours incubation of cancer cells with siRNA-dendrimer complexes, using an RNeasy kit (Qiagen, Valencia, Calif.). First strand complementary DNA (cDNA) was synthesized by Ready-To-Go You-Prime First-Strand Beads (Amersham Biosciences, Piscataway, N.J.) with […] of total cellular RNA and 100 ng of random hexadeoxynucleotide primer (Amersham Bioscience, Piscataway, N.J.). After synthesis, the reaction mixture was immediately subjected to PCR, which was carried out using GenAmp® PCR System 2400 (Perkin-Elmer, Shelton, Conn.). The following pairs of primers were used: BCL2-GGATTGTGGCCTTCTTTGAG (sense; SEQ ID NO: 6), CCAAACTGAGCAGAGTCTTC (antisense; SEQ ID NO: 7); β2-microglobulin (β2-m)-ACCCCCACTGAAAAAGATGA (sense; SEQ ID NO: 8), ATCTTCAAACCTCCATGATG (antisense; SEQ ID NO: 9). […] Gene expression was calculated as the ratio of mean band intensity of analyzed RT-PCR product (BCL2) to that of the internal standard (β2-m). […]

[2] = test system: A2780 human ovarian cancer cells; assay: Cellular uptake of fluorophore labeled siRNA, confocal microscopy; assay type: cell-based; conditions: living cells
Procedure: Cellular uptake and intracellular localization of siRNA was investigated using a confocal microscopy. In this experiment, living cancer cells were incubated with fluorophore labeled naked siRNA (siGLO® Red, red fluorescence) and siRNA complexed with cationic nanocarrier PAMAM-PEG-PLL (N/P=3). Cellular uptake studied substances was monitored in living cells placed in a chamber at 37° C. within 1 hour. Cellular localization of siRNA was examined on fixed and washed cells after the incubation for 24 hours with the substances. Fluorescence and its distribution within the cell were examined using a confocal microscope.

[3] = Serum stability of siRNA and PAMAM-PEG-PLL-siRNA complex; assay type: in vitro ADME; conditions: 50% human serum, 37° C.
Procedure: Serum stabilities of naked siRNA and siRNA complexed with PAMAM-PEG-PLL nanocarrier were investigated by incubating siRNA or PAMAM-PEG-PLL-siRNA complex in 50% human serum at 37° C. Ten samples were prepared by mixing siRNA (30 nmol) in water with PAMAM-PEG-PLL (74.8 nmol, N/P=3) solution in water and separately incubated for 30 minutes at room temperature. In the case of naked siRNA, equal volume of RNAase free water was used instead of nanocarrier. To each of these samples 50% human plasma was added (final siRNA concentration was 1.43 nM) and incubated at 37° C. Samples were removed at an indicated time intervals (0, 0.25, 0.5, 0.75, 1, 3, 6, 12, 24 and 50 hours) and analyzed using a gel electrophoresis (4% agarose gel at 100 V for 50 minutes) in Tris-Borate-EDTA buffer containing EtBr. siRNA bands on the gel were visualized under ultraviolet light. PAMAM-PEG-PLL-siRNA samples were pre-treated with polymethacrylic acid to release free siRNA from cationic nanocarriers. 100 μL of polymethacrylic acid solution (4 μM) was added to the complexes (triblock nanocarrier/siRNA=3) and incubated at 37° C. with 50% human plasma. The released siRNA was then analyzed by a gel electrophoresis.

BCL2 gene = BCL2 gene expression, RT-PCR; assay type: cell-based, human; conditions: A2780 cells, BCL2 siRNA 1 μM delivered by the named carrier, 24 hours
Procedure: Reverse transcription-polymerase chain reaction (RT-PCR) was used for the analysis of gene expression (Pakunlu et al. (2004) Cancer Res., 64:6214-6224). […] After 24 hours, total cellular RNA was isolated using an RNeasy kit (Qiagen, Valencia, Calif.). […] After synthesis, the reaction mixture was immediately subjected to polymerase chain reaction (PCR), which was carried out using […] System 2400 (Perkin-Elmer, Shelton, Conn.). β2-microglobulin (β2-m) was used as an internal standard. The following pairs of primers were used: BCL2: [NT] (sense; SEQ ID NO: 6), [NT] (antisense; SEQ ID NO: 7); β2-m (internal […] (sense; SEQ ID NO: 8), [NT] (antisense; SEQ ID NO: 9). PCR regimen was as follows: 94° C. for 5 minutes; 94° C. for 1 minute, 55° C. for 1 minute, and 72° C. for 1 minute for 41 cycles; and 60° C. for 10 minutes. PCR products were separated in 4% NuSieve 3:1 Reliant-agarose gels (Lonza, Basel, Switzerland) in 1× Tris-borate EDTA buffer [0.089 mol/L Tris-borate, 0.002 mol/L EDTA (pH 8.3); Research Organics Inc., Cleveland, Ohio] by submarine electrophoresis. The gels were stained with EtBr and digitally photographed.

[4] = test system: subcutaneous tumor xenografts of human A549 cancer cells; assay: Antitumor activity in subcutaneous A549 xenografts; conditions: intratumoral 3 times within 10 days
Procedure: NCR nude mice (female, 6 weeks, 20 g) were purchased from Taconic Farms, Inc. (Germantown, N.Y.). […] Briefly, A549 human cancer cells transfected with luciferase (5×10^6) were subcutaneously transplanted into the flanks of female athymic nu/nu mice. According to the approved institutional animal use protocol, the tumors were measured by a caliper every other day and their volumes were calculated as d^2×D/2 where d and D are the shortest and longest diameter of the tumor in mm, respectively. When the tumor reached a mean size of 50 mm^3, mice were divided into seven groups and injected intratumorally 3 times within 10 days with 150 μL of the following formulations: (1) saline (control); (2) free non-bound LHRH; (3) free non-bound siRNA; (4) free non-bound CIS; (5) Mixture of CIS and SPIO-PPI G5; (6) Mixture of CIS and SPIO-PPI G5-siRNA; and (7) Mixture of CIS and SPIO-PPI G5-siRNA-PEG-LHRH complexes. The concentrations of CIS and siRNA in the formulations were 2.5 mg/kg and 30 μM, respectively. Changes in tumor size were monitored by real-time bioluminescence in anesthetized animals by IVIS imaging system (Xenogen Bioscience, Cranbury, N.J.).

Substance: 5′-GUGAAGUCAACAUGCCUGC-dTdT-3′ (sense strand; SEQ ID NO: 4) and 5′-GCAGGCAUGUUGACUUCAC-dTdT-3′ (antisense strand; SEQ ID NO: 5) (sense GUGAAGUCAACAUGCCUGCTT; antisense GCAGGCAUGUUGACUUCACTT; sugars from the 5' end r19 d2, backbone not given here) [naked siRNA]
- siRNA cellular internalization [1]: not internalized by the cells
- BCL2 gene knockdown (BCL2 mRNA): Gene silencing was not observed
- cellular uptake of siRNA [2]: did not penetrate the cancer cells
- incubation time after which siRNA started to degrade [3]: 1 h
- expression of targeted BCL2 gene, from control value (BCL2 gene): did not influenced
- tumor growth / antitumor activity [4]: did not significantly influence the growth of the tumor
